Experimental findings from ChEMBL document CHEMBL1177695, “Discovery and development of natural product-derived chemotherapeutic agents based on a medicinal chemistry approach” (J Nat Prod, 2010) are described below.

For data set [1], the system named is A549. In words: Cytotoxicity against human A549 cells. Type of data set: functional, cell-based.
Data set [2] in a line: Growth inhibition of human lung cancer cells. Type of data set: functional. The conditions noted are these: Cancer cell lines.
A short description of data set [3]: Growth inhibition of human colon cancer cells. The following applies: Cancer cell lines. Type of data set: functional.
Data set [4] is described as follows: Growth inhibition of human CNS cancer cells. The conditions noted are these: Cancer cell lines. Type of data set: functional.
Data set [5] can be described thus: Growth inhibition of human ovarian cancer cells. Type of data set: functional. The following applies: Cancer cell lines.
Data set [6] is described as follows: Growth inhibition of human renal cancer cells. Type of data set: functional. The following applies: Cancer cell lines.
Data set [7] can be described thus: Growth inhibition of human leukemia cells. The following applies: Leukemia cell. Type of data set: functional.
The nature of data set [8]: Growth inhibition of human melanoma cells. Type of data set: functional. The following applies: Melanoma cell.
Data set [9] in a line: Cytotoxicity against human KBVIN cells after 3 days by sulforhodamine B assay. Type of data set: functional, cell-based. The conditions noted are these: 72 h. A general note: Sulforhodamine B stains cellular protein and so reports cell mass.
The test system of data set [10] is KB. In words: Selectivity ratio of EC50 for human KB cells to EC50 for vincristine-resistant human KB cells. Type of data set: functional.
Data set [11] relates to MCF7. As to the kind of experiment: Cytotoxicity against human MCF7 cells. Type of data set: functional. The following applies: read-out: ED50 (the source's name).
Data set [12] has as its system ZR-75-1. In words: Cytotoxicity against human ZR-75-1 cells. Type of data set: functional. The conditions noted are these: read-out: ED50 (the source's name).
Data set [13] concerns SK-BR-3. As to the kind of experiment: Cytotoxicity against human SK-BR-3 cells overexpressing HER2. Type of data set: functional. The following applies: read-out: ED50 (the source's name).
The subject of data set [14] is PC-3. As to the kind of experiment: Cytotoxicity against human PC3 cells after 2 days. Type of data set: functional, cell-based. The following applies: PC-3, 48 h.
Data set [15] has as its system LNCaP. As to the kind of experiment: Cytotoxicity against human LNCAP cells after 2 days. Type of data set: functional, cell-based. The conditions noted are these: 48 h.
Data set [16] deals with Pseudomonas fluorescens. In words: Antibacterial activity against Pseudomonas fluorescens. Type of data set: functional.
In data set [17] the test system is Staphylococcus aureus. As to the kind of experiment: Antibacterial activity against Staphylococcus aureus. Type of data set: functional.
Data set [18] concerns Aspergillus niger. As to the kind of experiment: Antifungal activity against Aspergillus niger. Type of data set: functional.
In data set [19] the test system is Aureobasidium pullulans. As to the kind of experiment: Antifungal activity against Aureobasidium pullulans. Type of data set: functional.
The subject of data set [20] is Pseudomonas aeruginosa. In words: Antibacterial activity against Pseudomonas aeruginosa. Type of data set: functional.
Data set [21] deals with Escherichia coli. In words: Antibacterial activity against Escherichia coli. Type of data set: functional.
Data set [22] concerns melanoma (human). In words: Growth inhibition of human melanoma cells. The following applies: Melanoma tumor cell line.
Data set [23] relates to Human immunodeficiency virus 1. As to the kind of experiment: Antiviral activity against HIV1 NL4-3. Type of data set: functional, organism-based. The conditions noted are these: Human immunodeficiency virus 1, NL4-3.
For data set [24], the system named is Human immunodeficiency virus 1. As to the kind of experiment: Antiviral activity against HIV1 PI-R. The following applies: Human immunodeficiency virus 1, PI-R. Type of data set: functional, organism-based.
Data set [25] has as its system Human immunodeficiency virus 1. In words: Antiviral activity against HIV1 infected in human CEM-SS cells assessed as inhibition of viral replication. Type of data set: functional, organism-based. The following applies: Human immunodeficiency virus 1, CEM-SS.
A short description of data set [26]: Inhibition of tubulin polymerization.
The subject of data set [27] is OVCAR-3. As to the kind of experiment: Antitumor activity against human OVCAR-3 cells xenografted in mouse assessed as increase in mouse life span. Type of data set: functional, cell-based. (In xenograft studies the graft and the host belong to different species.)
Data set [28] deals with A549. In words: Cytotoxicity against human A549 cells after 3 days by sulforhodamine B assay. Type of data set: functional, cell-based. The following applies: A549, 72 h.
In data set [29] the test system is 1A9. As to the kind of experiment: Cytotoxicity against human 1A9 cells after 3 days by sulforhodamine B assay. Type of data set: functional, cell-based. The following applies: 1A9, 72 h.
In data set [30] the test system is A-431. In words: Cytotoxicity against human A431 cells after 3 days by sulforhodamine B assay. Type of data set: functional, cell-based. The conditions noted are these: A-431, 72 h.
The subject of data set [31] is HCT-8. As to the kind of experiment: Cytotoxicity against human HCT8 cells after 3 days by sulforhodamine B assay. Type of data set: functional, cell-based. The following applies: HCT-8, 72 h.
For data set [32], the system named is PC-3. In words: Cytotoxicity against human PC3 cells after 3 days by sulforhodamine B assay. Type of data set: functional, cell-based. The conditions noted are these: PC-3, 72 h.
In data set [33] the test system is KB. As to the kind of experiment: Cytotoxicity against human KB cells after 3 days by sulforhodamine B assay. Type of data set: functional, cell-based. The following applies: 72 h.
Data set [34] deals with HUVEC. In words: Cytotoxicity against HUVEC after 3 days by sulforhodamine B assay. Type of data set: cell-based. The following applies: Homo sapiens, 72 h.
In data set [35] the test system is MCF7. As to the kind of experiment: Cytotoxicity against human MCF7 cells after 72 hrs by MTT assay. Type of data set: functional, cell-based. The following applies: MCF7, 72 h.
In data set [36] the test system is MDA-MB-231. In words: Cytotoxicity against human MDA-MB-231 cells after 72 hrs by MTT assay. Type of data set: functional, cell-based. The following applies: MDA-MB-231, 72 h. In general terms: Formazan colour is commonly taken as a measure of viable cells.
Data set [37] is described as follows: Cytotoxicity against human Hep3B cells after 72 hrs by MTT assay. Type of data set: functional, cell-based, Hep 3B2.
The test system of data set [38] is Human immunodeficiency virus 1. In words: Antiviral activity against HIV1 3B infected in H9 cells assessed as inhibition of viral replication by p24 antigen ELISA. Type of data set: functional, organism-based. The conditions noted are these: Human immunodeficiency virus 1, 3B, H9; read-out: EC50.
The nature of data set [39]: Therapeutic index, ratio of IC50 for human H9 cells to EC50 for HIV 3B. Type of data set: cell-based. The conditions noted are these: read-out: TI.
Data set [40] can be described thus: Oral bioavailability in rat. Type of data set: ADME, organism-based. The conditions noted are these: in vivo.
Data set [41] deals with MCF7. In words: Cytotoxicity against human MCF7 cells after 72 hrs by sulforhodamine B assay. Type of data set: functional. The following applies: MCF7, 72 h, read-out: ED50 (the source's name).
The test system of data set [42] is SK-BR-3. As to the kind of experiment: Cytotoxicity against human SK-BR-3 cells after 72 hrs by sulforhodamine B assay. The following applies: SK-BR-3, 72 h, read-out: ED50 (the source's name). Type of data set: functional.
The test system of data set [43] is ZR-75-1. As to the kind of experiment: Cytotoxicity against human ZR-75-1 cells after 72 hrs by sulforhodamine B assay. Type of data set: functional. The following applies: ZR-75-1, 72 h, read-out: ED50 (the source's name).
The subject of data set [44] is MDA-MB-231. As to the kind of experiment: Cytotoxicity against human MDA-MB-231 cells after 72 hrs by sulforhodamine B assay. Type of data set: functional. The following applies: MDA-MB-231, 72 h, read-out: ED50 (the source's name).

Molecules are shown by their SMILES. In brackets after ≈: the same amount, converted by molar mass.

For orientation: IC50 means the concentration needed to halve the response being measured. Low readings indicate inhibition by little substance, high ones a need for much substance. One may read the GI50 as the concentration at which growth is held to half of that of the control. A higher GI50 goes with lower sensitivity of the cells. For orientation: MIC means the smallest concentration in the dilution series that meets the test's criterion for growth inhibition. The bioavailability is dose-corrected exposure relative to a reference, in per cent. High values mean good availability, low ones poor availability.

As to `COc1ccc2c(CNCCCCCCO)cc3cc4c(cc3c2c1)OCO4` [listing 1 of 2 here], the IC50 in data set [1] (a549) is 0.16 µM.

As to `COC(=O)[C@]12OC[C@]34[C@H]([C@@H](O)[C@@H]1O)[C@@]1(C)CC(=O)C(O)=C(C)[C@@H]1C[C@H]3OC(=O)[C@H](OC(=O)/C=C(/C)C(F)(F)F)[C@@H]24`, the concentration for 50% growth inhibition (GI50) in [2], in data set [3], in data set [4], in [5], in [6] and in data set [7] was 0.1 µM each time. Moreover, the GI50 in data set [8] is 0.1 µM.

Take `CCC1=C(O)c2c(oc(-c3ccc(CC)cc3)cc2=O)C(CC)(CC)C1=O` [6,8,8-TRIETHYL-4-ETHYL DESMOSDUMOTIN B]: in data set [9], the EC50 was 0.025 µg/mL (≈ 0.0682 µM). Moreover, the “Ratio EC50” value in data set [10] came to 320.

Consider `CCc1cccc2c1ccc1c3occ(C)c3c(=O)oc21`, for which the values for the EC50 in [11], in [12] and in data set [13] were 0.45 µg/mL (≈ 1.62 µM), 0.18 µg/mL (≈ 0.647 µM) and 0.1 µg/mL (≈ 0.359 µM), respectively.

`CCOC(=O)/C=C/C(C(=O)/C=C/c1ccc(OC)c(OC)c1)=C(O)\C=C\c1ccc(OC)c(OC)c1`: the half-inhibitory concentration (IC50) was 1 µM in data set [14] and 0.2 µM in [15].

Turning to `O=C1c2ccccc2C(=O)c2c(NCC3CO3)ccc(NCC3CO3)c21` (stereo unspecified), the MIC in data set [16] was determined as 0.13 µg/mL (≈ 0.371 µM); in [17] it was 0.13 µg/mL (≈ 0.371 µM); in data set [18] it was 0.13 µg/mL (≈ 0.371 µM); in data set [19], 0.13 µg/mL (≈ 0.371 µM); in [20] it was 63 µg/mL (≈ 180 µM); in [21], 250 µg/mL (≈ 714 µM).

For `CCC1=C(O)c2c(oc(-c3ccc(C)cc3)cc2=O)C(CC)(CC)C1=O` [6,8,8-TRIETHYL-4-METHYL DESMOSDUMOTIN B], the EC50 in data set [9] was 0.03 µg/mL (≈ 0.0851 µM). In addition, in data set [10], the “Ratio EC50” value was more than 460.

`O=C1c2ccsc2C(=O)c2sc(CO)cc21`: the concentration for 50% growth inhibition (GI50) in [22] is 0.0182 µM.

As for `CC(C)C[C@@H](NC(=O)[C@]12CCC(C)(C)C=C1[C@H]1CC[C@@H]3[C@@]4(C)CC[C@H](OC(=O)CC(C)(C)C(=O)O)C(C)(C)[C@@H]4CC[C@@]3(C)[C@]1(C)CC2)C(=O)O`, the EC50 in data set [23] stood at 0.0085 µM; in [24], 0.021 µM.

In the case of `Cc1cc(=S)oc2c3c(ccc12)OC(C)(C)[C@H](OC(=O)C12CCC(C)(C(=O)O1)C2(C)C)[C@@H]3OC(=O)C12CCC(C)(C(=O)O1)C2(C)C` (stereo partly specified), the EC50 in data set [25] was found to be 0.064 µM.

Consider `O=c1cc(-c2ccccc2F)[nH]c2cc3c(cc12)OCO3`, for which half-maximal inhibition in data set [26] (IC50) required 0.85 µM. Besides, in data set [27], the Activity is listed as 130%.

Take `COc1ccc2c(CNCCCCCCO)cc3cc4c(cc3c2c1)OCO4` [listing 2 of 2 here]: the midpoint of inhibition in data set [1] (Homo sapiens, A549), the IC50, lay at 0.13 µM.

On to `CCCC1=C(OC)C(CCC)(CCC)C(=O)/C(=C(O)\C=C\c2ccc(Br)cc2)C1=O`, for which the EC50 in data set [28], in data set [29], in data set [30], in [31], in [32] and in data set [33] was 0.9 µg/mL (≈ 1.89 µM) throughout. In addition, the EC50 in data set [9] and in [34] was 0.9 µg/mL (≈ 1.89 µM) each time.

With `COC1=C(C)C(O)=C(C(=O)/C=C/c2ccccc2)C(=O)C1(C)C` [DESMOSDUMOTIN C], the EC50 in data set [28], in data set [29], in [30], in data set [31], in data set [32] and in data set [33] was 3 µg/mL (≈ 9.6 µM) throughout. In addition, the EC50 in data set [9] and in [34] was 3 µg/mL (≈ 9.6 µM) in each case.

As for `O=C1C=CC(O)(c2cc(=O)c3c(ccc4ccccc43)o2)C=C1`, the IC50 came out at 0.66 µg/mL (≈ 2.17 µM) in [35], 0.39 µg/mL (≈ 1.28 µM) in [36] and 0.3 µg/mL (≈ 0.986 µM) in [37].

`Cc1c(CO)c(=O)oc2c3c(ccc12)OC(C)(C)[C@H](OC(=O)C12CCC(C)(C(=O)O1)C2(C)C)[C@@H]3OC(=O)C12CCC(C)(C(=O)O1)C2(C)C` (stereo partly specified): the EC50 in [38] amounted to 0.0042 µM. Moreover, the selectivity ratio in data set [39] was 6000. In data set [40], this molecule had a bioavailability of 15%.

For the molecule `CCCc1cccc2c1ccc1c3occ(C)c3c(=O)oc21`, the EC50 in [41] was 1.2 µg/mL (≈ 4.1 µM); in data set [42], 0.1 µg/mL (≈ 0.342 µM); in data set [43] it was 0.3 µg/mL (≈ 1.03 µM); in data set [44], more than 10 µg/mL.
